Laboratory results from patent publication US20100331577A1, “Method for radio-labeling serotonin transporter ligand, 123I-IADM” (ATOMIC ENERGY COUNCIL-INSTITUTE OF NUCLEAR ENERGY RESEARCH, priority 2008, published 2010).

Tests used:
[1] = cited from earlier work
serotonin transporter [2] = molecular target: T1, serotonin transporter (Homo sapiens, UniProt P31645); conditions: cited from earlier work; for clarity of the image obtained: compared with ^125I-IDAM; for specific binding affinity: imaging of the serotonin transporter
serotonin transporter [3] = molecular target: T1, serotonin transporter; conditions: cited from earlier work
[4] = radiochemistry purity over time measured by HPLC (stability); type: physicochemical; conditions: main peak 63
Description: Referring to FIG. 4, an HPLC is used to measure the radiochemistry purity of the ^123I-ADAM 13. Reverse-phase high-performance liquid chromatography equipped with a radiodetector is used for the qualitative and quantitative assessment of the ^123I-ADAM 13. The retention time of the ^123I-ADAM 13 is 18 minutes.
Referring to FIG. 6, the radiochemistry purity of the ^123I-ADAM after 0 hour is shown in a chart. At 61, the radiochemistry purity is 0.67%. At 62, the radiochemistry purity is 1.58%. At 63, the radiochemistry purity is 97.78%.
Referring to FIG. 7, the radiochemistry purity of the ^123I-ADAM after 48 hours is shown in a chart. At 64, the radiochemistry purity is 4.41%. At 65, the radiochemistry purity is 1.55%. At 66 the radiochemistry purity is 94.04%. After 48 hours, the radiochemistry purity is still higher than 90%.

serotonin transporter [5] = molecular target: T2, serotonin transporter (Rattus norvegicus, UniProt P31652); assay: microSPECT and microCT imaging of the brain of a SD rat; type: in vivo
T2 construct: from tissue; host or cells: brain of a SD rat (in vivo imaging)
Excerpt: Referring to FIG. 8, a microCT image 71 and a microSPECT image 72 of the brain of a SD rat are shown. A fused image 73 of the microCT image and the microSPECT image 72 is also shown. […] The concentration of the serotonin transporter in the midbrain is higher than in the cerebellum 73. The ^123I-ADAM 13 can effectively be used to detect the serotonin transporter.

serotonin transporter [6] = assay: SPECT and MRI imaging of the brain of an ape; type: in vivo
Excerpt: Referring to FIG. 9, the ^123I-ADAM is used to provide a SPECT image and a MRI image 82 of an ape. […] The concentration of the serotonin transporter in the hypothalamus is higher than in the cerebellum 83. The ^123I-ADAM 13 can effectively be used to detect the serotonin transporter.

SERT = SERT (Homo sapiens, UniProt P31645); conditions: in vitro specific binding assay; cited from earlier work
Chain of SERT (P31645 whole entry): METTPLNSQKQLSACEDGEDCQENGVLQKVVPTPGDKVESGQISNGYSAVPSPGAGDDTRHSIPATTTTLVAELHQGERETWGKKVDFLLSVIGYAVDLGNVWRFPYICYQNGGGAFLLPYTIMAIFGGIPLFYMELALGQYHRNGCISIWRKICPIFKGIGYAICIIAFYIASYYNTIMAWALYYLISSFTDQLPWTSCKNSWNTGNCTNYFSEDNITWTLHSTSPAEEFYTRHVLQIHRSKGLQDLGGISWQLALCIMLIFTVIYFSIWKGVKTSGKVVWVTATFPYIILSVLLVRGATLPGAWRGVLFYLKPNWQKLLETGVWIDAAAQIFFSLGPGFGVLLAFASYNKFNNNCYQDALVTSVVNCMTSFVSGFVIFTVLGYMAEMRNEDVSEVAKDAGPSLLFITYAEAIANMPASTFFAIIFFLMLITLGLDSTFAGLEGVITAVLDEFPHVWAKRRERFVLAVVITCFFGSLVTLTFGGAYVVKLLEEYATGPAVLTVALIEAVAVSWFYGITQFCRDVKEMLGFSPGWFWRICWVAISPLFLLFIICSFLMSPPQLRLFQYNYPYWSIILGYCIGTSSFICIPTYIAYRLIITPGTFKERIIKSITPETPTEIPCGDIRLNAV

T1 sequence (P31645 whole entry): as above
T2 sequence (P31652 whole entry): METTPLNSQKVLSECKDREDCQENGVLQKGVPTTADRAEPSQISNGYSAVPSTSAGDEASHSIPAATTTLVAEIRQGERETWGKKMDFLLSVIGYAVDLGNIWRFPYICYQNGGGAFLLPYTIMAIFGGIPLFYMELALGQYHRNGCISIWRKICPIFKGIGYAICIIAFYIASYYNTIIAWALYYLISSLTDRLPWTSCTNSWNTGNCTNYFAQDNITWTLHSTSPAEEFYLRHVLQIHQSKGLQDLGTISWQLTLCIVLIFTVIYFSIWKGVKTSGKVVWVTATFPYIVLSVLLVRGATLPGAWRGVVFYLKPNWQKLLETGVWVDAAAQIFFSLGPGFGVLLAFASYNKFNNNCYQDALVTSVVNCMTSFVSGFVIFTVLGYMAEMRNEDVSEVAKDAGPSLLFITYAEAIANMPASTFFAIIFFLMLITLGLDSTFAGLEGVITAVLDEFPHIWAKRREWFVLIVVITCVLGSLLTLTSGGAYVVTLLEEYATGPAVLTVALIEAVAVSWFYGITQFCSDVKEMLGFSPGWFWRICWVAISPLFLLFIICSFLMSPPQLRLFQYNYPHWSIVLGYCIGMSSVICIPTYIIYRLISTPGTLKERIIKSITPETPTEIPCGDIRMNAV

In the case of `CN(C)Cc1ccccc1Sc1ccc([125I])cc1N` [^125I-ADAM], the “absorption by the brain” value ([1]; compared with ^125I-IDAM) is listed as “less than ^125I-IDAM”, the “clarity of the image obtained” value (serotonin transporter [2]) is listed as “clearer” and the specific binding affinity (serotonin transporter [2]) is listed as “much higher than ^125I-IDAM”. The “affinity with the serotonin transporter” value (serotonin transporter [3]) was “much better than that of ^125I-IDAM”.

For `CN(C)Cc1ccccc1Sc1ccc([123I])cc1N` [^123I-ADAM], the “radiochemistry purity after 0 hour” value [4] was 97.78%, the “affinity with the midbrain versus cerebellum” value (serotonin transporter [5]) was “better than with the cerebellum” and the “affinity with the hypothalamus of the midbrain versus cerebellum” value (serotonin transporter [6]) was “more affinitive than with the cerebellum”.

In the case of `CN(C)Cc1ccccc1Oc1ccc([125I])cc1CO` [^125I-ODAM], the “clarity of the image obtained” value (serotonin transporter [2]) is given as “less clear than with the use of ^125I-IDAM” and the “specific binding affinity with SERT” value (SERT) is given as “good”.

For `CN(C)Cc1ccccc1Sc1ccc([125I])cc1CO` [^125I-IDAM], the “absorption by a brain” value ([1]; two minutes after injection) is given as 2.44% and the specific binding affinity (serotonin transporter [2]) is given as 1.75.
